“And” between values parts separate entries of the source, which are not always exact repeats. Identical values can stand only once.
Legend:
[1] = Precipitation rate after centrifugation; assay type: physicochemical; conditions: comparative experiment; curcumin concentration 6.0/5.8/4.8/4.0 mg/mL, pH 7/7/7/6 in row order; beverage = A3B2C2D2
Experimental: The weight of the centrifuge tube and the total weight of the sample and the centrifuge tube were measured, and then the sample was centrifuged at 4,000 r/min for 15 min. The supernatant was discarded and the total weight of the centrifuge tube and the precipitate was accurately measured.
The precipitation rate was calculated as follows: precipitation rate=precipitate weight/sample weightx 100%.

[2] = Stability of absorbance (A/A0 after centrifugation); assay type: physicochemical; conditions: comparative experiment; curcumin concentration 6.0/5.8/4.8/4.0 mg/mL, pH 7/7/7/6 in row order; beverage = A3B2C2D2
Experimental: The absorbance (A0) of the sample before the centrifugation and the absorbance (A) of the sample after the centrifugation were measured at the maximum absorption wavelength, and the stability of absorbance was represented by A/A0.

[3] = Optimal concentration of stabilizer Zn^2+, absorbance of curcumin solution at 425 nm; assay type: physicochemical; conditions: after 60 h, room temperature
Experimental: A series of Zn^2+ stock solutions were prepared as follows. 0.03 g, 0.06 g, 0.09 g, 0.12 g, 0.15 g and 0.18 g of zinc sulfate were dissolved with 100 mL of distilled water and stirred uniformly to prepare a series of zinc sulfate stock solutions with a concentration of 0.3 g/L, 0.6 g/L, 0.9 g/L, 1.2 g/L, 1.5 g/L and 1.8 g/L, respectively, which were stored for use.
The 7 vessels were placed at room temperature and measured for the absorbance at 425 nm using a microplate reader every other 12 h, where each measurement was performed in triplicate.

[4] = ABTS^+⋅ scavenging activity; assay type: biochemical; conditions: positive control
Experimental: (§1) The beverage samples were prepared as follows.
2 mg, 4 mg, 6 mg, 8 mg and 10 mg of Vc were diluted with distilled water to 100 mL, respectively, that was, the final concentrations of the Vc were 20 μg/mL, 40 μg/mL, 60 μg/mL, 80 μg/mL and […], respectively.
5 mL of a K2S2O8 solution (2.6 mmol/L) and 10 mL of an […] (7.4 mmol/L) were mixed uniformly and reacted in dark for 12 h. The ABTS^+⋅ solution was diluted with phosphate buffer solution (pH=6.6) to an absorbance of 0.70±0.02 to produce a working solution. […] The reaction mixture was mixed uniformly, reacted in dark for 6 min and measured at 734 nm for the absorbance A1, where a well containing the sample and 160 μL of absolute ethanol was used as control; a well containing 40 μL of distilled water and 160 μL of the ABTS^+⋅ solution was used as blank group; and Vc was used as positive control.
(§2) The scavenging rate was calculated as follows: scavenging rate %=[1−(A1−A2)/A0]×100%,

[5] = DPPH⋅ scavenging activity; assay type: biochemical; conditions: positive control
Experimental: Moreover, it can also be acidified with citric acid to pH 4.6 and then pasteurized at 80° C. for 20 min; or filtered with a 0.22 μm organic filter for cold sterilization. The unsterilized beverage was used as control. The scavenging capacity toward DPPH free radical was used as an index to evaluate the sterilization effect, where the ascorbic acid (Vc) was used as positive control.
as §1
2 mg, 4 mg, 6 mg, 8 mg and 10 mg of Vc were diluted with distilled water to 100 mL, respectively, that was, the final concentrations of the Vc were 20 μg/mL, 40 μg/mL, 60 μg/mL, 80 μg/mL and 100 μg/mL, respectively.
The reaction mixture was reacted in dark for 30 min, and then measured at 517 nm for the absorbance (A1), where a well containing the sample and 100 μL of absolute ethanol was used as control; a well containing 100 μL of distilled water and 100 μL of the DPPH solution was used as blank group; and Vc was used as positive control.
as §2

[6] = Table 18 (starch sodium octenyl succinate series)
[7] = Table 19, one value beside each beverage (nanoparticle powder 0.2-1.0%)
[8] = Table 21, one value beside each test number
[9] = verification experiment, mean of three repeats
[10] = verification experiment, single repeats 1-3

For `COc1cc(/C=C/C(=O)CC(=O)/C=C/c2ccc(O)c(OC)c2)ccc1O` [Pure curcumin, Curcumin], the “Precipitation rate after centrifugation (%)” value [1] was 0.550 ± 0.100%, the “Coefficient of absorbanee stability” value [2] was 0.286 ± 0.180 and the “absorbance of curcumin solution at 425 nm over time” value ([3]; Zn^2+ concentration 0.3 g/L) was “smallest slope and relatively stable absorbance”. The “absorbance of curcumin solution at 425 nm over time” value ([3]; Zn^2+ concentration 0.36 g/L) was “declining tendency”.
In the case of `O=C1O[C@H]([C@@H](O)CO)C(O)=C1O` [Vc, ascorbic acid], the “ABTS^+ · scavenging rate (%) Vc” value ([4]; Table 16 (CMC-Na series)) is reported as 90.38%, the “ABTS^+ · scavenging rate (%) Vc” value ([4]; Table 17 (xanthan gum series)) is reported as 90.38% and the “ABTS^+ · scavenging rate (%) Vc” value [4, 6] is reported as 90.38%. For the same molecule, the “Rate of ABTS^+ · radical clearance (%) Vc” value [4, 7] was 92.44% and 93.69% and 94.53% and 88.12% and 90.38%, the “ABTS^+ · scavenging rate (%) Vc” value [4, 8] was 96.13% and 92.88% and 95.10% and the “ABTS^+ · scavenging rate (%) Vc” value [4, 9] was 95.34 ± 0.00%. The “ABTS^+ · scavenging rate (%) Vc” value [4, 10] was 95.34%, the “DPPH · scavenging rate (%) Vc” value ([5]; Table 16 (CMC-Na series)) was 92.51% and the “DPPH · scavenging rate (%) Vc” value ([5]; Table 17 (xanthan gum series)) was 92.51%. The “DPPH · scavenging rate (%) Vc” value [5, 6] was 92.51%, the “Rate of DPPH · radical clearance (%) Vc” value [5, 7] was 93.15% and 93.62% and 93.67% and 91.72% and 92.51% and the “DPPH · scavenging rate (%) Vc” value [5, 8] was 95.72% and 93.44% and 94.65%. For the same molecule, the “DPPH · scavenging rate (%) Vc” value [5, 9] was 94.5 ± 0.00% and the “DPPH · scavenging rate (%) Vc” value [5, 10] was 95.59% and 94.59%.

From patent publication US11696901B2 (SHAOGUAN UNIVERSITY, priority 2020, dated 2023)
